Test results as given in ChEMBL document CHEMBL4130493, “An insight into the biological activities of heterocyclic-fatty acid hybrid molecules” (Eur J Med Chem, 2017).
Converted amounts (≈) assume the structure as drawn.

Assays:
Escherichia coli [1] = assay: Antibacterial activity against Escherichia coli MTCC 40 incubated for 24 hrs by serial two-fold dilution method; type: functional; settings: MTCC 40, 24 h
Pseudomonas aeruginosa = assay: Antibacterial activity against Pseudomonas aeruginosa MTCC 2453 incubated for 24 hrs by serial two-fold dilution method; type: functional; settings: MTCC 2453, 24 h
Escherichia coli [2] = assay: Antibacterial activity against Escherichia coli K-12 at 100 ug/mL incubated for 24 hrs by filter paper disc method; type: functional; settings: K-12, 24 h, read-out: DIZ
Salmonella typhimurium = assay: Antibacterial activity against Salmonella typhimurium MTCC98 at 100 ug/mL incubated for 24 hrs by filter paper disc method; type: functional, Salmonella enterica subsp. enterica serovar Typhimurium; settings: Salmonella enterica, MTCC98, 24 h; read-out: DIZ
Staphylococcus aureus = assay: Antibacterial activity against Staphylococcus aureus MSSA 22 at 100 ug/mL incubated for 24 hrs by filter paper disc method; type: functional; settings: MSSA 22, 24 h, read-out: DIZ
Candida albicans [3] = assay: Antifungal activity against Candida albicans IOA-109 at 100 ug/mL incubated for 18 to 48 hrs by agar disc diffusion method; type: functional; settings: read-out: DIZ
Bacillus subtilis = assay: Antibacterial activity against Bacillus subtilis ATCC 6051 at 100 ug/mL incubated for 24 hrs by filter paper disc method; type: functional; settings: ATCC 6051, 24 h, read-out: DIZ
A549 = assay: Cytotoxicity in human A549 cells by SRB assay; type: functional; settings: read-out: TC50 (the source's name)
Candida albicans [4] = assay: Antifungal activity against Candida albicans IOA-109 at 50 ug/disc incubated for 5 to 6 days by disc diffusion method; type: functional; settings: read-out: DIZ
Plasmodium falciparum = assay: Antimalarial activity against Plasmodium falciparum infected in erythrocytes assessed as inhibition of increase in parasite density after 72 hrs; type: functional, organism-based
Hep 3B2 = assay: Cytotoxicity in human Hep3B cells incubated for 48 hrs by MTT assay; type: functional, cell-based

| MIC (Escherichia coli [1]) [µg/mL] | MIC (Pseudomonas aeruginosa) [µg/mL] | Structure (SMILES) | zone of inhibition at 100 µg/mL (Escherichia coli [2]) [mm] | zone of inhibition at 100 µg/mL (Salmonella typhimurium) [mm] | zone of inhibition at 100 µg/mL (Staphylococcus aureus) [mm] | zone of inhibition at 100 µg/mL (Candida albicans [3]) [mm] | zone of inhibition at 100 µg/mL (Bacillus subtilis) [mm] | other results |
| --- | --- | --- | --- | --- | --- | --- | --- | --- |
| 0.35 to 0.7 (≈ 0.828 to 1.66 µM) | 0.35 to 0.7 (≈ 0.828 to 1.66 µM) | CCCCCCCCCCCCCC(=O)NN1C(=O)CSC1c1ccc(F)cc1 (stereo unspecified) |  |  |  |  |  |  |
|  |  | CCCCCCCCCCCCCCCCCc1nc(-c2cccc(O)c2)n[nH]1 | 13.1 to 22.2 | 13.1 to 22.2 | 13.1 to 22.2 | 17.2 to 19 | 13.1 to 22.2 |  |
| 0.35 to 0.7 (≈ 0.749 to 1.5 µM) | 0.35 to 0.7 (≈ 0.749 to 1.5 µM) | CCCCCCCCCCCCCCCC(=O)NN1C(=O)CSC1c1ccc(Cl)cc1 (stereo unspecified) |  |  |  |  |  |  |
|  |  | CCCCCCCCCCCCCCCCCc1nnc(S)n1N |  |  |  |  |  | CC50 (A549): 0.282 µM |
|  |  | CCCCCCCCCCCCCCCCCc1nc(-c2ccc(O)c(O)c2)n[nH]1 | 13.1 to 22.2 | 13.1 to 22.2 | 13.1 to 22.2 | 17.2 to 19 | 13.1 to 22.2 |  |
| 0.35 to 0.7 (≈ 0.865 to 1.73 µM) | 0.35 to 0.7 (≈ 0.865 to 1.73 µM) | CCCCCCCCCCCCCC(=O)NN1C(=O)CSC1c1ccccc1 (stereo unspecified) |  |  |  |  |  |  |
| 0.35 to 0.7 (≈ 0.777 to 1.55 µM) | 0.35 to 0.7 (≈ 0.777 to 1.55 µM) | CCCCCCCCCCCCCCCC(=O)NN1C(=O)CSC1c1ccc(F)cc1 (stereo unspecified) |  |  |  |  |  |  |
| 0.35 to 0.7 (≈ 0.809 to 1.62 µM) | 0.35 to 0.7 (≈ 0.809 to 1.62 µM) | CCCCCCCCCCCCCCCC(=O)NN1C(=O)CSC1c1ccccc1 (stereo unspecified) |  |  |  |  |  |  |
|  |  | CCCCCCC(O)C/C=C\CCCCCCCc1nc(-c2ccccc2)n[nH]1 (stereo unspecified) | 13.1 to 22.2 | 13.1 to 22.2 | 13.1 to 22.2 | 17.2 to 19 | 13.1 to 22.2 |  |
|  |  | CC/C=C\C/C=C\C/C=C\CCCCCCCc1nnc(S)n1N |  |  |  |  |  | CC50 (A549): 0.264 µM |
|  |  | CCCCC/C=C\CCC(O)CCCCCCCc1nc(-c2ccc(O)c(O)c2)n[nH]1 (stereo unspecified) | 13.1 to 22.2 | 13.1 to 22.2 | 13.1 to 22.2 | 17.2 to 19 | 13.1 to 22.2 |  |
|  |  | C=CCCCCCCCCc1nc(-c2ccccc2)n[nH]1 | 13.1 to 22.2 | 13.1 to 22.2 | 13.1 to 22.2 | 17.2 to 19 | 13.1 to 22.2 |  |
|  |  | CCCCCCCC(O)CC/C=C\CCCCCC(=O)n1nnc2ccccc21 (stereo unspecified) |  |  |  |  |  | zone of inhibition at 50 µg/disc (Candida albicans [4]): 16 to 20 mm |
|  |  | CCCCCCC(O)C/C=C\CCCCCCCc1nc(-c2cccc(O)c2)n[nH]1 (stereo unspecified) | 13.1 to 22.2 | 13.1 to 22.2 | 13.1 to 22.2 | 17.2 to 19 | 13.1 to 22.2 |  |
| 0.35 to 0.7 (≈ 0.805 to 1.61 µM) | 0.35 to 0.7 (≈ 0.805 to 1.61 µM) | CCCCCCCCCCCCCC(=O)NN1C(=O)CSC1c1ccc(OC)cc1 (stereo unspecified) |  |  |  |  |  |  |
|  |  | C=C[C@H]1CN2CC[C@H]1C[C@H]2[C@H](O/C=C/C=C/CCCCCCCCCCCCCC)c1ccnc2ccc(OC)cc12 |  |  |  |  |  | EC50 (Plasmodium falciparum): 7 to 20 µM |
|  |  | CCCCCCCCCCCCCCCCCc1nnc(S)o1 |  |  |  |  |  | CC50 (A549): 0.143 µM |
| 0.35 to 0.7 (≈ 0.756 to 1.51 µM) | 0.35 to 0.7 (≈ 0.756 to 1.51 µM) | CCCCCCCCCCCCCCCC(=O)NN1C(=O)CSC1c1ccc(OC)cc1 (stereo unspecified) |  |  |  |  |  |  |
| 0.35 to 0.7 (≈ 0.724 to 1.45 µM) | 0.35 to 0.7 (≈ 0.724 to 1.45 µM) | CCCCCCCCCCCCCC(=O)NN1C(=O)CSC1c1ccc(Br)cc1 (stereo unspecified) |  |  |  |  |  |  |
|  |  | C=C[C@H]1CN2CC[C@H]1C[C@H]2[C@H](O/C=C/C=C/C=C/C=C/C=C/CCCCCCCCCC)c1ccnc2ccc(OC)cc12 |  |  |  |  |  | EC50 (Plasmodium falciparum): 7 to 20 µM |
|  |  | C=CCCCCCCCCc1nc(-c2cccc(O)c2)n[nH]1 | 13.1 to 22.2 | 13.1 to 22.2 | 13.1 to 22.2 | 17.2 to 19 | 13.1 to 22.2 |  |
|  |  | C=C[C@H]1CN2CC[C@H]1C[C@H]2[C@H](OCCCCCCCCCCCC)c1ccnc2ccc(OC)cc12 |  |  |  |  |  | EC50 (Plasmodium falciparum): 7 to 20 µM |
|  |  | C=CCCCCCCCCc1nc(-c2ccc(O)c(O)c2)n[nH]1 | 13.1 to 22.2 | 13.1 to 22.2 | 13.1 to 22.2 | 17.2 to 19 | 13.1 to 22.2 |  |

| MIC (Escherichia coli [1]) [µg/mL] | MIC (Pseudomonas aeruginosa) [µg/mL] | Structure (SMILES) | zone of inhibition at 100 µg/mL (Escherichia coli [2]) [mm] | zone of inhibition at 100 µg/mL (Salmonella typhimurium) [mm] | zone of inhibition at 100 µg/mL (Staphylococcus aureus) [mm] | zone of inhibition at 100 µg/mL (Candida albicans [3]) [mm] | zone of inhibition at 100 µg/mL (Bacillus subtilis) [mm] | other results |
| --- | --- | --- | --- | --- | --- | --- | --- | --- |
| 0.35 to 0.7 (≈ 0.836 to 1.67 µM) | 0.35 to 0.7 (≈ 0.836 to 1.67 µM) | CCCCCCCCCCCCCC(=O)NN1C(=O)CSC1c1ccc(C)cc1 (stereo unspecified) |  |  |  |  |  |  |
| 0.35 to 0.7 (≈ 0.733 to 1.47 µM) | 0.35 to 0.7 (≈ 0.733 to 1.47 µM) | CCCCCCCCCCCCCCCC(=O)NN1C(=O)CSC1c1ccc([N+](=O)[O-])cc1 (stereo unspecified) |  |  |  |  |  |  |
| 0.35 to 0.7 (≈ 0.778 to 1.56 µM) | 0.35 to 0.7 (≈ 0.778 to 1.56 µM) | CCCCCCCCCCCCCC(=O)NN1C(=O)CSC1c1ccc([N+](=O)[O-])cc1 (stereo unspecified) |  |  |  |  |  |  |
| 0.35 to 0.7 (≈ 0.684 to 1.37 µM) | 0.35 to 0.7 (≈ 0.684 to 1.37 µM) | CCCCCCCCCCCCCCCC(=O)NN1C(=O)CSC1c1ccc(Br)cc1 (stereo unspecified) |  |  |  |  |  |  |
|  |  | CC/C=C\C/C=C\C/C=C\CCCCCCCc1nnc(S)o1 |  |  |  |  |  | CC50 (A549): 0.149 µM |
|  |  | C=CCCCCCCCCc1n[nH]c(=S)n1N |  |  |  |  |  | IC50 (Hep 3B2): 9.2 µM |
|  |  | CCCCCCCCCCCCCCCCCc1nc(-c2ccccc2)n[nH]1 | 13.1 to 22.2 | 13.1 to 22.2 | 13.1 to 22.2 | 17.2 to 19 | 13.1 to 22.2 |  |
|  |  | C=CCCCCCCCCc1n[nH]c(=S)o1 |  |  |  |  |  | IC50 (Hep 3B2): 8.94 µM |
|  |  | CCCCC/C=C\CCC(O)CCCCCCCc1nc(-c2cccc(O)c2)n[nH]1 (stereo unspecified) | 13.1 to 22.2 | 13.1 to 22.2 | 13.1 to 22.2 | 17.2 to 19 | 13.1 to 22.2 |  |
|  |  | CCCCCCCC/C=C\C(O)CCCCCCC(=O)n1nnc2ccccc21 (stereo unspecified) |  |  |  |  |  | zone of inhibition at 50 µg/disc (Candida albicans [4]): 16 to 20 mm |
| 0.35 to 0.7 (≈ 0.832 to 1.66 µM) | 0.35 to 0.7 (≈ 0.832 to 1.66 µM) | CCCCCCCCCCCCCC(=O)NN1C(=O)CSC1c1ccc(O)cc1 (stereo unspecified) |  |  |  |  |  |  |
|  |  | C=C[C@H]1CN2CC[C@H]1C[C@H]2[C@H](OCCCCCCCC/C=C\C/C=C\C/C=C\CC)c1ccnc2ccc(OC)cc12 |  |  |  |  |  | EC50 (Plasmodium falciparum): 7 to 20 µM |
| 0.35 to 0.7 (≈ 0.784 to 1.57 µM) | 0.35 to 0.7 (≈ 0.784 to 1.57 µM) | CCCCCCCCCCCCCCCC(=O)NN1C(=O)CSC1c1ccc(C)cc1 (stereo unspecified) |  |  |  |  |  |  |
|  |  | CCCCC/C=C\CCC(O)CCCCCCCc1nc(-c2ccccc2)n[nH]1 (stereo unspecified) | 13.1 to 22.2 | 13.1 to 22.2 | 13.1 to 22.2 | 17.2 to 19 | 13.1 to 22.2 |  |
|  |  | CCCCCCC(O)C/C=C\CCCCCCCc1nc(-c2ccc(O)c(O)c2)n[nH]1 (stereo unspecified) | 13.1 to 22.2 | 13.1 to 22.2 | 13.1 to 22.2 | 17.2 to 19 | 13.1 to 22.2 |  |
| 0.35 to 0.7 (≈ 0.797 to 1.59 µM) | 0.35 to 0.7 (≈ 0.797 to 1.59 µM) | CCCCCCCCCCCCCC(=O)NN1C(=O)CSC1c1ccc(Cl)cc1 (stereo unspecified) |  |  |  |  |  |  |
|  |  | C=C[C@H]1CN2CC[C@H]1C[C@H]2[C@H](O/C=C/C=C/C=C/C=C/C=C/C=C/CCCCCCCCCC)c1ccnc2ccc(OC)cc12 |  |  |  |  |  | EC50 (Plasmodium falciparum): 7 to 20 µM |
|  |  | CCCCCCCC/C=C\CCCCCCCc1nc(-c2ccccc2)n[nH]1 | 13.1 to 22.2 | 13.1 to 22.2 | 13.1 to 22.2 | 17.2 to 19 | 13.1 to 22.2 |  |
|  |  | CCCCCCCC/C=C\CCCCCCCc1nc(-c2cccc(O)c2)n[nH]1 | 13.1 to 22.2 | 13.1 to 22.2 | 13.1 to 22.2 | 17.2 to 19 | 13.1 to 22.2 |  |
|  |  | C=C[C@H]1CN2CC[C@H]1C[C@H]2[C@H](OCCCCCCCCCCCCCCCCCC)c1ccnc2ccc(OC)cc12 |  |  |  |  |  | EC50 (Plasmodium falciparum): 7 to 20 µM |
| 0.35 to 0.7 (≈ 0.78 to 1.56 µM) | 0.35 to 0.7 (≈ 0.78 to 1.56 µM) | CCCCCCCCCCCCCCCC(=O)NN1C(=O)CSC1c1ccc(O)cc1 (stereo unspecified) |  |  |  |  |  |  |
|  |  | CCCCCCCC/C=C\CCCCCCCc1nc(-c2ccc(O)c(O)c2)n[nH]1 | 13.1 to 22.2 | 13.1 to 22.2 | 13.1 to 22.2 | 17.2 to 19 | 13.1 to 22.2 |  |
